Laboratory results as given in article PMC10916382, “Repurposing screen identifies novel candidates for broad-spectrum coronavirus antivirals and druggable host targets” (Antimicrobial Agents and Chemotherapy, 2024).
Counter-ions that a name gives are not always drawn. Like-named read-outs stand apart in the source and are kept apart here.

Tests used:
[1] = test system: HCoV-229E; assay: microbe, parasite or virus in culture; type: cell-based, Homo sapiens sapiens
[2] = test system: Huh-7.5/F-Luc cells; conditions: for CC50 (µM): maximum tested dose 5 µM
[3] = test system: SARS-CoV-2; conditions: Calu-3 cells
[4] = HCoV 229E infection, dose series, max. dose 5 µM, read-out: IC50

| Compound | IC50 [1, 4] [µM] | CC50 (µM) ([2]; Huh-7.5 cells, dose series) | % cell viability at max. dose [5 µM] ([2]; at max. dose 5 µM) [%] | Anti-SARS-CoV-2 screening on Calu-3 cells: viability [% of control] [3] | Anti-SARS-CoV-2 screening on Calu-3 cells: intracellular SARS-CoV-2 infection measured via immunofluorescence imaging [% of control] [3] | IC50 ([1]; read-out: IC50) [µM] | IC50 ([1]; Human coronavirus 229E, Huh7.5) [µM] | IC50 ([1]; HCoV-229E/R-Luc on Huh-7.5/F-Luc cells, dose series, max. dose 5 µM, read-out: IC50 (µM), HCoV 229E) [µM] | % cell viability at max. dose [5 µM] ([2]; Huh-7.5/F-Luc cells, 5 µM) [%] | CC50 (µM) ([2]; Huh-7.5/F-Luc cells) |
| --- | --- | --- | --- | --- | --- | --- | --- | --- | --- | --- |
| Cc1ccc(Sc2ccccc2C2CCNCC2)cc1 [LU-AA24530] | 0.68 | greater than maximum tested dose | 150.91 | 106.74 % of control | 100.77 % of control |  |  |  |  |  |
| COc1ccc2cc(S(=O)(=O)N[C@H](CC(=O)N[C@H](Cc3ccc(CN4[C@H](C)CCC[C@@H]4C)cc3)C(=O)N(C)C(C)C)c3ccc4c(c3)OCO4)ccc2c1 [SSR240612] | 0.53 | greater than maximum tested dose | 127.22 | 108.83 % of control | 125.70 % of control |  |  |  |  |  |
| Oc1ccc(CCN2CCC(Nc3nc4ccccc4n3Cc3ccc(F)cc3)CC2)cc1 [DESMETHYLASTEMIZOLE] |  | greater than maximum tested dose | 160.37 | 121.52 % of control | 109.56 % of control | 1.07 |  |  |  |  |
| Nc1ncccc1-c1nc2ccc(-c3ccccc3)nc2n1-c1ccc(C2(N)CCC2)cc1 [ARQ-092 (Miransertib mesylate)] |  | greater than maximum tested dose | 98.72 | 27.64 % of control | 126.86 % of control |  |  |  |  |  |
| C1=C(c2ccc(CN3CCCCC3)cc2)N2CCN=C2c2ccccc21 [SDZ-62-434] | 0.76 | greater than maximum tested dose | 157.85 | 104.96 % of control | 96.11 % of control |  |  |  |  |  |
| OCCNCCOc1ccc(/C(=C(\c2ccccc2)C(F)(F)F)c2ccccc2)cc1 [PANOMIFENE] |  | greater than maximum tested dose | 141.70 | 98.59 % of control | 95.32 % of control | 0.89 |  |  |  |  |
| COC(=O)C1=C(C)NC(C)=C(C(=O)OCCCCNC[C@H](O)COc2ccccc2)C1c1cccc([N+](=O)[O-])c1 (stereo partly drawn) [YM 430] | 0.82 | greater than maximum tested dose | 137.51 | 101.27 % of control | 99.21 % of control |  |  |  |  |  |
| COc1ccc2cc1Oc1ccc(cc1)C[C@H]1c3c(cc4c(c3Oc3cc5c(cc3OC)CCN(C)[C@@H]5C2)OCO4)CCN1C [Cepharanthine] |  | greater than maximum tested dose |  |  |  |  | 0.47 |  |  |  |
| COc1cc(C(C)=O)ccc1OCCCN1CCC(C(O)(c2ccc(F)cc2)c2ccc(F)cc2)CC1 [AHR-5333] | 1 | greater than maximum tested dose | 162.61 | 103.33 % of control | 98.57 % of control |  |  |  |  |  |
| CCNCc1cncc(-c2ccc3[nH]nc(-c4nc5c(F)cc(F)cc5[nH]4)c3c2)c1C [AG-024322] | 0.78 | greater than maximum tested dose | 151.27 | 54.61 % of control | 108.94 % of control |  |  |  |  |  |
| Oc1cccc[c]1[Hg][Cl] [RFM-006-841-7] |  |  |  | 123.69 % of control | 99.62 % of control |  |  | 1.35 | 91.70 | greater than maximum tested dose |
